According to patent publication US4728729A, “Cyanoimidazole nucleoside derivatives” (Sumitomo Pharmaceuticals Co., Ltd., priority 1984, dated 1988):
Each block holds one compound with its values, some of them ahead of it.

Key:
[1] = J. of Antibiotics, vol. 27 p. 775 (1974); Canada Pat. No. 1,078,736; cited from earlier work
solid Ehrlich carcinoma = assay: Antitumor effect on solid Ehrlich carcinoma; format: in vivo, mouse (ICR/Jcl); conditions: Days 1,5,9, tumors weighed day 15
Description: The antitumor activities of the compounds of the present invention were estimated according to the method described in "Cancer Research" vol. 43, p. 5851 (1983).
ICR/Jcl male mice, 5 weks old, […], […]. Each test group was composed of 6 mice. Three million cells of Ehrlich carcinoma were injected in the hind leg. The drug was administered orally at days 1, 5, and 9. After sacrificing the mice at day 15, tumors were removed and weighed. The tumor growth inhibitory ratio was calculated according to the following formula. [formula]

[2] = system: HL-60 (promyelocytic leukemia); assay: In vitro growth inhibition assay, HL-60; format: cell-based; conditions: Homo sapiens; HL-60, suspension culture, 72 hr
Description: (§1) In vitro growth inhibition activities were determined according to the method described in "Cancer Research", Vol. 43, p. 5851-5856 (1983).
(§2) In the case of suspension culture (lymphoma and leukemia cell lines), cells were cultured with various concentrations of the compound for 72 hr.
(§3) Cell numbers were counted with a Coulter Counter and IC50 s were calculated.

[3] = system: CCRF-HSB-2 (acute lymphoblastic leukemia); assay: In vitro growth inhibition assay, CCRF-HSB-2; format: cell-based; conditions: Homo sapiens; CCRF-HSB-2, suspension culture, 72 hr
Description: as §1, §2, §3

P3HR1 (Burkitt lymphoma) = assay: In vitro growth inhibition assay, P3HR1; format: cell-based; conditions: Homo sapiens, P3HR-1; P3HR1, suspension culture, 72 hr
Description: as §1, §2, §3

[4] = system: QG-56 (lung squamous carcinoma); assay: In vitro growth inhibition assay, QG-56; format: cell-based; conditions: Homo sapiens; QG-56, monolayer culture, 72 to 120 hr
Description: as §1
(§4) In the case of monolayer culture (solid tumor cell lines), cells were cultured for 24 hr without the compound in order to allow cells to attach on the culture plate. Then the culture medium was changed to a fresh medium containing various concentrations of the compound. Cells were further cultured for 72 hr to 120 hr, and then removed from the culture plate by 0.125% trypsin and 0.05% EDTA solution.
as §3

[5] = system: QG-90 (lung small cell carcinoma); assay: In vitro growth inhibition assay, QG-90; format: cell-based; conditions: Homo sapiens; QG-90, monolayer culture, 72 to 120 hr
Description: as §1, §4, §3

A549 (lung cancer) = assay: In vitro growth inhibition assay, A549; format: cell-based; conditions: Homo sapiens; A549, monolayer culture, 72 to 120 hr
Description: as §1, §4, §3

[6] = system: Hela (uterine cervix cancer); assay: In vitro growth inhibition assay, Hela; format: cell-based; conditions: Homo sapiens, monolayer culture, 72 to 120 hr
Description: as §1, §4, §3

[7] = system: KU-2 (renal cell carcinoma); assay: In vitro growth inhibition assay, KU-2; format: cell-based; conditions: Homo sapiens; KU-2, monolayer culture, 72 to 120 hr
Description: as §1, §4, §3

DU 145 (prostate cancer) = assay: In vitro growth inhibition assay, DU 145; format: cell-based; conditions: Homo sapiens; DU 145, monolayer culture, 72 to 120 hr
Description: as §1, §4, §3

[8] = system: SCaBER (bladder squamous carcinoma); assay: In vitro growth inhibition assay, SCaBER; format: cell-based; conditions: Homo sapiens, monolayer culture, 72 to 120 hr
Description: as §1, §4, §3

[9] = system: various types of human tumor cell lines; assay: In vitro growth inhibition on various human tumor cell lines (summary); format: cell-based
Description: as §1, §2, §4, §3

anti-SRBC PFC response = assay: Immunosuppressive activity: anti-SRBC PFC response in vivo (Cunningham method); design: species or system mouse; conditions: for Suppression / PFC × 10^-3 / spleen: day 0 to 3; for Suppression: PFC measured day 4; for PFC × 10^-3 / spleen: measured day 4, AV. ± SD., n = 4, control 363 ± 51
Description: The immunosuppressive activity of the compound of the present invention was assayed in comparison with mizoribine which has been used in immunosuppressive therapy. After a sheep red blood cell preparation (SRBC) was injected in mice, the compounds were administered orally once a day on day 0 to 3 and the plaque forming cell (PFC) number was measured on day 4 by Cunningham method. [Cunningham A. J. et al. Immunol. 14, 599(1968)].

Compound: NC(=O)c1nc[nH]c1O [4-carbamoylimidazolium-5-olate]
immunosuppressive and antitumor activities, in words [1]: immunosuppressive and antitumor activities

IC50 [2]: 870 nM
IC50 [3]: < 3000 nM
IC50 (P3HR1 (Burkitt lymphoma)): 4.6 µM
IC50 [4]: 2800 nM
IC50 [5]: 6.7 µM
IC50 (A549 (lung cancer)): 8.5 µM
IC50 [6]: 4.7 µM
IC50 [7]: 1000 nM
IC50 (DU 145 (prostate cancer)): 4.4 µM
IC50 [8]: 5 µM
Compound: N#Cc1ncn([C@@H]2O[C@H](CO)[C@@H](O)[C@H]2O)c1O [4-cyano-1-β-D-ribofuranosylimidazolium-5-olate]
Inhibition ratio (tumor growth) (solid Ehrlich carcinoma; 10 mg/kg/day po): 40.1%
Inhibition ratio (tumor growth) (solid Ehrlich carcinoma; 20 mg/kg/day po): 73.6%
Inhibition ratio (tumor growth) (solid Ehrlich carcinoma; 40 mg/kg/day po): 99.8%
Inhibition ratio (tumor growth) (solid Ehrlich carcinoma; 80 mg/kg/day po): 99.8%
growth inhibitory activities on human tumor cell lines, in words [9]: potent growth inhibitory activities
Suppression (anti-SRBC PFC response; 5 mg/day p.o.): 0%
PFC × 10^-3 / spleen (anti-SRBC PFC response; 5 mg/day p.o.): 362 ± 123 PFC × 10^-3 / spleen
Suppression (anti-SRBC PFC response; 25 mg/day p.o.): 99%
PFC × 10^-3 / spleen (anti-SRBC PFC response; 25 mg/day p.o.): 4 ± 1 PFC × 10^-3 / spleen
Suppression (anti-SRBC PFC response; 50 mg/day p.o.): 100%
PFC × 10^-3 / spleen (anti-SRBC PFC response; 50 mg/day p.o.): 0 PFC × 10^-3 / spleen
immunosuppressive activity compared with mizoribine, in words (anti-SRBC PFC response; oral): more active than mizoribine
immunosuppressive activity in oral administration, in words (anti-SRBC PFC response; oral): potent activity in oral administration

Compound: NC(=O)c1ncn([C@@H]2O[C@H](CO)[C@@H](O)[C@H]2O)c1O [Mizoribine, 4-carbamoyl-1-β-D-ribofuranosylimidazolium-5-olate, reference compound]
Suppression (anti-SRBC PFC response; 5 mg/day p.o.): 0%
PFC × 10^-3 / spleen (anti-SRBC PFC response; 5 mg/day p.o.): 496 ± 140 PFC × 10^-3 / spleen
Suppression (anti-SRBC PFC response; 25 mg/day p.o.): 69%
PFC × 10^-3 / spleen (anti-SRBC PFC response; 25 mg/day p.o.): 113 ± 53 PFC × 10^-3 / spleen
Suppression (anti-SRBC PFC response; 50 mg/day p.o.): 89%
PFC × 10^-3 / spleen (anti-SRBC PFC response; 50 mg/day p.o.): 39 ± 43 PFC × 10^-3 / spleen
immunosuppressive and antitumor activities, in words [1]: immunosuppressive and antitumor activities
